Measurements published in paper PMC5641445 (Journal of medicinal chemistry, 2017).
Structures can show the parent of a compound that is named as a salt.

Assays:
[1] = molecular target: mouse PKA catalytic subunits (Mus musculus, UniProt P05132); assay: PKA inhibition, ADP-Glo Kinase Assay
[2] = Metabolic stability in mouse liver microsomes; format: in vitro ADME; conditions: polar carboxamides on the paroxetine template
mouse cardiomyocytes = format: cell-based
[3] = Abbreviated pharmacokinetic study in mice after IP administration
bovine GRK2 (S670A) = molecular target: T1, bovine GRK2 (S670A) (Bos taurus, UniProt P21146, S670A); assay: GRK2 kinase inhibition
T1 sequence (P21146 1-689 S670A): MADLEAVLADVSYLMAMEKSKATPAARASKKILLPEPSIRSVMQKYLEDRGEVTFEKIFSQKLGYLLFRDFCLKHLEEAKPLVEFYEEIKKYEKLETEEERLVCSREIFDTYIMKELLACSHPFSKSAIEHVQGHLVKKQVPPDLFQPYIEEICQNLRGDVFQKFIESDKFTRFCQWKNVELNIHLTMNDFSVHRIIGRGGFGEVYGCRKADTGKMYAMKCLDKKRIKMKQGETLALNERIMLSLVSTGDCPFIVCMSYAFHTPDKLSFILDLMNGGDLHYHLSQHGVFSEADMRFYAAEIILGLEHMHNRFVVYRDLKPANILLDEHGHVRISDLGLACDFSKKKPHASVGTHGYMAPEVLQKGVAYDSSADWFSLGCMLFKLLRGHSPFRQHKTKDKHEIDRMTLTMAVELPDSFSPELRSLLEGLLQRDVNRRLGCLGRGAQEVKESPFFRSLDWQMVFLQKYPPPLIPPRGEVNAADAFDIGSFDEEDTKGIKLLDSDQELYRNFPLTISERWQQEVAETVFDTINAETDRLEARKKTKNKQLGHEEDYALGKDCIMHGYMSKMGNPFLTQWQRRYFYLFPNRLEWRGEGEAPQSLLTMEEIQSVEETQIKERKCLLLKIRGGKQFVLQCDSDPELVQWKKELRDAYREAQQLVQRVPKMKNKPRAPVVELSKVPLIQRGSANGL

bovine GRK5 = bovine GRK5 (Bos taurus, UniProt P43249); assay: GRK5 kinase inhibition
Chain of bovine GRK5 (P43249 whole entry): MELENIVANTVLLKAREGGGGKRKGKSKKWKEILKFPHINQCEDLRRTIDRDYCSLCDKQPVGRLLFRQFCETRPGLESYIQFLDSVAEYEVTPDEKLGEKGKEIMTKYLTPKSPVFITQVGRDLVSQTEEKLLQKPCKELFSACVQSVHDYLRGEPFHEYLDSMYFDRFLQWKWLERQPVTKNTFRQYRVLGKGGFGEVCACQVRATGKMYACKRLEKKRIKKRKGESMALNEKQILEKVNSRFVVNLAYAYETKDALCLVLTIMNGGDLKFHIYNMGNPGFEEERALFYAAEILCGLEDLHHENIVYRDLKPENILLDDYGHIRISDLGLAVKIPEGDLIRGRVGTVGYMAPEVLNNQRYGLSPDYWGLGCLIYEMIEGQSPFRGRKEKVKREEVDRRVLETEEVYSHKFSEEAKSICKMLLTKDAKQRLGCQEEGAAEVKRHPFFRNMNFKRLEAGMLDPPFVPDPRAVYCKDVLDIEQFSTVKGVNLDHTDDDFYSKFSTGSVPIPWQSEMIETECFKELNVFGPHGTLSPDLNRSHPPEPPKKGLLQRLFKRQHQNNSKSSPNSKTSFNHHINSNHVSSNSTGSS

[4] = female, CD-1, mouse, plasma, ip, 10 mg/kg

Row | Compound | IC50 [1] [µM] | also measured
1 | CNC(=O)c1cc([C@@H]2CCNC[C@H]2COc2ccc3c(c2)OCO3)ccc1F [14aa, 5-((3S,4R)-3-((benzo[d][1,3]dioxol-5-yloxy)methyl)piperidin-4-yl)-2-fluoro-N-methylbenzamide] | > 100 | 
2 | O=C(NCc1ccccc1)c1cc([C@@H]2CCNC[C@H]2COc2ccc3c(c2)OCO3)ccc1F [14ab, 5-((3S,4R)-3-((benzo[d][1,3]dioxol-5-yloxy)methyl)piperidin-4-yl)-N-benzyl-2-fluorobenzamide] | > 100 | 
3 | O=C(NCCc1ccccc1)c1cc([C@@H]2CCNC[C@H]2COc2ccc3c(c2)OCO3)ccc1F [14ac, 5-((3S,4R)-3-((benzo[d][1,3]dioxol-5-yloxy)methyl)piperidin-4-yl)-2-fluoro-N-phenethylbenzamide] | > 100 | 
4 | O=C(NCc1c(F)cccc1F)c1cc([C@@H]2CCNC[C@H]2COc2ccc3c(c2)OCO3)ccc1F [14ad, 5-((3S,4R)-3-((benzo[d][1,3]dioxol-5-yloxy)methyl)piperidin-4-yl)-N-(2,6-difluorobenzyl)-2-fluorobenzamide hydrochloride] | > 100 | 
5 | O=C(NCCc1c(F)cccc1F)c1cc([C@@H]2CCNC[C@H]2COc2ccc3c(c2)OCO3)ccc1F [14ae, 5-((3S,4R)-3-((benzo[d][1,3]dioxol-5-yloxy)methyl)piperidin-4-yl)-N-(2,6-difluorophenethyl)-2-fluorobenzamide] | > 100 | 
6 | O=C(NCc1ccccc1C(F)(F)F)c1cc([C@@H]2CCNC[C@H]2COc2ccc3c(c2)OCO3)ccc1F [14af, 5-((3S,4R)-3-((benzo[d][1,3]dioxol-5-yloxy)methyl)piperidin-4-yl)-2-fluoro-N-(2-(trifluoromethyl)benzyl)benzamide] | > 100 | 
7 | Cc1cccc(C)c1CNC(=O)c1cc([C@@H]2CCNC[C@H]2COc2ccc3c(c2)OCO3)ccc1F [14ag, 5-((3S,4R)-3-((benzo[d][1,3]dioxol-5-yloxy)methyl)piperidin-4-yl)-N-(2,6-dimethylbenzyl)-2-fluorobenzamide hydrochloride] | > 100 | 
8 | O=C(NCc1c(Cl)cccc1Cl)c1cc([C@@H]2CCNC[C@H]2COc2ccc3c(c2)OCO3)ccc1F [14ah, 5-((3S,4R)-3-((benzo[d][1,3]dioxol-5-yloxy)methyl)piperidin-4-yl)-N-(2,6-dichlorobenzyl)-2-fluorobenzamide] | > 100 | 
9 | COc1cccc(OC)c1CNC(=O)c1cc([C@@H]2CCNC[C@H]2COc2ccc3c(c2)OCO3)ccc1F [14ai, 5-((3S,4R)-3-((benzo[d][1,3]dioxol-5-yloxy)methyl)piperidin-4-yl)-N-(2,6-dimethoxybenzyl)-2-fluorobenzamide hydrochloride] | > 100 | 
10 | COc1ccccc1CNC(=O)c1cc([C@@H]2CCNC[C@H]2COc2ccc3c(c2)OCO3)ccc1F [14aj, 5-((3S,4R)-3-((benzo[d][1,3]dioxol-5-yloxy)methyl)piperidin-4-yl)-2-fluoro-N-(2-methoxybenzyl)benzamide hydrochloride] | > 100 | 
11 | O=C(NCc1cccnc1)c1cc([C@@H]2CCNC[C@H]2COc2ccc3c(c2)OCO3)ccc1F [14al, 5-((3S,4R)-3-((benzo[d][1,3]dioxol-5-yloxy)methyl)piperidin-4-yl)-2-fluoro-N-(pyridin-3-ylmethyl)benzamide] | > 100 | 
12 | O=C(NCc1ccncc1)c1cc([C@@H]2CCNC[C@H]2COc2ccc3c(c2)OCO3)ccc1F [14am, 5-((3S,4R)-3-((benzo[d][1,3]dioxol-5-yloxy)methyl)piperidin-4-yl)-2-fluoro-N-(pyridin-4-ylmethyl)benzamide] | > 100 | 
13 | O=C(NCCc1ccccn1)c1cc([C@@H]2CCNC[C@H]2COc2ccc3c(c2)OCO3)ccc1F [14an, 5-((3S,4R)-3-((benzo[d][1,3]dioxol-5-yloxy)methyl)piperidin-4-yl)-2-fluoro-N-(2-(pyridin-2-yl)ethyl)benzamide] | > 100 | 

Now from value to compound, other results behind:

Row | IC50 [1] [µM] | Compound | also measured
14 | > 100 | O=C(NCCc1cccnc1)c1cc([C@@H]2CCNC[C@H]2COc2ccc3c(c2)OCO3)ccc1F [14ao, 5-((3S,4R)-3-((benzo[d][1,3]dioxol-5-yloxy)methyl)piperidin-4-yl)-2-fluoro-N-(2-(pyridin-3-yl)ethyl)benzamide] | 
15 | > 100 | O=C(NCCc1ccncc1)c1cc([C@@H]2CCNC[C@H]2COc2ccc3c(c2)OCO3)ccc1F [14ap, 5-((3S,4R)-3-((benzo[d][1,3]dioxol-5-yloxy)methyl)piperidin-4-yl)-2-fluoro-N-(2-(pyridin-4-yl)ethyl)benzamide] | 
16 | > 100 | O=C(NCc1ncc[nH]1)c1cc([C@@H]2CCNC[C@H]2COc2ccc3c(c2)OCO3)ccc1F [14aq, N-((1H-imidazol-2-yl)methyl)-5-((3S,4R)-3-((benzo[d][1,3]dioxol-5-yloxy)methyl)piperidin-4-yl)-2-fluorobenzamide] | 
17 | > 100 | O=C(NCCc1c[nH]cn1)c1cc([C@@H]2CCNC[C@H]2COc2ccc3c(c2)OCO3)ccc1F [14ar, N-(2-(1H-imidazol-4-yl)ethyl)-5-((3S,4R)-3-((benzo[d][1,3]dioxol-5-yloxy)methyl)piperidin-4-yl)-2-fluorobenzamide] | 
18 | > 100 | O=C(NCc1ccn[nH]1)c1cc([C@@H]2CCNC[C@H]2COc2ccc3c(c2)OCO3)ccc1F [14as, N-((1H-pyrazol-5-yl)methyl)-5-((3S,4R)-3-((benzo[d][1,3]dioxol-5-yloxy)methyl)piperidin-4-yl)-2-fluorobenzamide] | metabolic stability in MLM, in words [2]: substantial metabolic instability; improvement in contractility efficacy over compound 4 (mouse cardiomyocytes): 5 fold; concentration giving improved contractility (mouse cardiomyocytes; isoproterenol-stimulated): 100 nM; concentration at 30 min [3, 4]: 2710 nM; concentration at 2 h [3, 4]: 1440 nM; concentration at 4 h [3, 4]: 270 nM; concentration at 7 h [3, 4]: 43 nM; time with plasma concentration higher than GRK2 IC50 ([…] nM) ([3]; mice, single IP administration 10 mg/kg): over seven
19 | > 100 | O=C(NCCc1cc[nH]n1)c1cc([C@@H]2CCNC[C@H]2COc2ccc3c(c2)OCO3)ccc1F [14at, N-(2-(1H-pyrazol-3-yl)ethyl)-5-((3S,4R)-3-((benzo[d][1,3]dioxol-5-yloxy)methyl)piperidin-4-yl)-2-fluorobenzamide] | decrease in GRK2 potency relative to 14as (bovine GRK2 (S670A)): 26 fold
20 | > 100 | Cc1cc(CNC(=O)c2cc([C@@H]3CCNC[C@H]3COc3ccc4c(c3)OCO4)ccc2F)n[nH]1 [14au, 5-((3S,4R)-3-((benzo[d][1,3]dioxol-5-yloxy)methyl)piperidin-4-yl)-2-fluoro-N-((5-methyl-1H-pyrazol-3-yl)methyl)benzamide] | selectivity for GRK2 over GRK5 (bovine GRK5): > 100 fold
21 | > 100 | Cn1ccc(CNC(=O)c2cc([C@@H]3CCNC[C@H]3COc3ccc4c(c3)OCO4)ccc2F)n1 [14av, 5-((3S,4R)-3-((benzo[d][1,3]dioxol-5-yloxy)methyl)piperidin-4-yl)-2-fluoro-N-((1-methyl-1H-pyrazol-3-yl)methyl)benzamide] | decrease in GRK2 potency relative to 14as (bovine GRK2 (S670A)): 40 fold
22 | > 100 | Cn1nccc1CNC(=O)c1cc([C@@H]2CCNC[C@H]2COc2ccc3c(c2)OCO3)ccc1F [14aw, 5-((3S,4R)-3-((benzo[d][1,3]dioxol-5-yloxy)methyl)piperidin-4-yl)-2-fluoro-N-((1-methyl-1H-pyrazol-5-yl)methyl)benzamide] | decrease in GRK2 potency relative to 14as (bovine GRK2 (S670A)): 70 fold
23 | > 100 | O=C(NCc1cn[nH]c1)c1cc([C@@H]2CCNC[C@H]2COc2ccc3c(c2)OCO3)ccc1F [14ax, N-((1H-pyrazol-4-yl)methyl)-5-((3S,4R)-3-((benzo[d][1,3]dioxol-5-yloxy)methyl)piperidin-4-yl)-2-fluorobenzamide] | decrease in GRK2 potency relative to 14as (bovine GRK2 (S670A)): 10 fold
24 | > 100 | O=C(NCCc1cn[nH]c1)c1cc([C@@H]2CCNC[C@H]2COc2ccc3c(c2)OCO3)ccc1F [14ay, N-(2-(1H-pyrazol-4-yl)ethyl)-5-((3S,4R)-3-((benzo[d][1,3]dioxol-5-yloxy)methyl)piperidin-4-yl)-2-fluorobenzamide hydrochloride] | 
25 | > 100 | O=C(Cc1cc([C@@H]2CCNC[C@H]2COc2ccc3c(c2)OCO3)ccc1F)NCCc1ccccn1 [14bc, 2-(5-((3S,4R)-3-((benzo[d][1,3]dioxol-5-yloxy)methyl)piperidin-4-yl)-2-fluorophenyl)-N-(2-(pyridin-2-yl)ethyl)acetamide hydrochloride] | 
26 | > 100 | O=C(Cc1cc([C@@H]2CCNC[C@H]2COc2ccc3c(c2)OCO3)ccc1F)NCCc1cn[nH]c1 [14bd, N-(2-(1H-pyrazol-4-yl)ethyl)-2-(5-((3S,4R)-3-((benzo[d][1,3]dioxol-5-yloxy)methyl)piperidin-4-yl)-2-fluorophenyl)acetamide] | increase in GRK2 potency relative to paroxetine (bovine GRK2 (S670A)): 2 fold
27 | > 100 | Fc1ccc([C@@H]2CCNC[C@H]2COc2ccc3c(c2)OCO3)cc1 [Paroxetine, paroxetine, reference compound] | 
